Patent EP4818185A1, “CRYSTAL FORMS OF 20(S)-PROTOPANAXADIOL, PREPARATION METHOD THEREFOR AND USE THEREOF” (Shanghai Baocheng Tailai Technology Co., Ltd., priority 2023, dated 2025)
In brackets after ≈: the same amount, converted by molar mass. Several values for one entry are separate records, joined by “and”; a condition that tells them apart may be missing. Equal values may be shown once.

What was measured:
[1] = Hygroscopicity test (dynamic vapor sorption, DVS); assay type: physicochemical; conditions: for Hygroscopic weight gain at 25°C/80% RH (%): DVS; for hygroscopicity: class per Chinese Pharmacopoeia 2020 edition definition
Procedure: The dynamic vapor sorption-desorption (DVS) curves of each sample were tested and plotted, respectively, and the experimental results are shown in table 5, wherein, the DVS profile of the crystal form A in Example 2 is shown in figure 7, the DVS profile of the crystal form B in Example 5 is shown in figure 8, and the DVS profile of the crude 20(S)-protopanaxadiol in Example 1 is shown in figure 9.
Regarding the description of hygroscopicity characteristics and the definition of hygroscopic weight gain (Guidelines for Hygroscopicity Test of Drugs, Chinese Pharmacopoeia 2020 Edition): • Deliquescent: Absorbing sufficient moisture to form a liquid • Highly hygroscopic: Hygroscopic weight gain of not less than 15% • Hygroscopic: Hygroscopic weight gain of less than 15% but not less than 2% • Slightly hygroscopic: Hygroscopic weight gain of less than 2% but not less than 0.2% • Non-hygroscopic or almost non-hygroscopic: Hygroscopic weight gain of less than 0.2%.

[2] = Bulk density and tap density test; assay type: physicochemical; conditions: for Average bulk density / Average tap density: average of three parallel tests; for Average tap density: tapped 200 times; for Bulk density: single tests No. 1-3, approx. 800 mg in 5 mL graduated cylinder; for Tap density: single tests No. 1-3, tapped 200 times
Procedure: Approximately 800 mg of each test sample was taken, and added into a 5 mL graduated cylinder, respectively, and the volume at this point was recorded. The graduated cylinder was lightly tapped against the tabletop 200 times, and the volume at this point was recorded. Three parallel tests were performed.

[3] = Repose angle test (funnel, cone); assay type: physicochemical; conditions: for Average repose angle (°): average of three parallel tests; for Repose angle (°): single tests No. 1-3, calculated from cone height and diameter
Procedure: An appropriate amount of each test sample was taken. A funnel was fixed on an iron stand and positioned perpendicularly to the tabletop. The crystal form A and crystal form B samples were added into the funnel, respectively, allowing the sample to freely fall to form a cone. The height and diameter of the cone were measured to calculate the repose angle. Three parallel tests were performed. […]

[4] = Mechanical stability test (grinding, tableting); assay type: physicochemical; conditions: for crystal form after grinding: manually ground in agate mortar for about 3 minutes; for crystal form after tableting / crystallinity degree after tableting: tableting under a pressure of 200 MPa
Procedure: An appropriate amount of each test sample was taken, placed respectively in an agate mortar, and manually ground for about 3 minutes, then, the crystal form was measured.
An appropriate amount of each test sample was taken, and added respectively into a tablet press. The crystal form was measured after tableting under a pressure of 200 MPa.

[5] = Solid-state stability test (XRPD crystal form, HPLC purity); assay type: physicochemical; conditions: for crystal form transformation (XRPD): under three conditions: 80°C sealed 1 day, 25°C/60% RH and 40°C/75% RH open 1 month
Procedure: An appropriate amount of each test sample was weighed, and subjected to stability tests under the following conditions: sealed storage at 80°C for 1 day, and open storage at 25°C/60% RH and 40°C/75% RH for 1 month, respectively. Solid samples separated under different conditions were subjected to XRPD to measure crystal form to evaluate physical stability, and HPLC to measure chemical purity to evaluate chemical stability. […]

[6] = Solubility test (suspension equilibrated at 37°C, content by HPLC); conditions: for Solubility, FaSSIF: FaSSIF (fasted state simulated intestinal fluid); for Solubility, FaSSIF / Solubility, SGF: 37°C; for Solubility, SGF: SGF (simulated gastric fluid); for 24-hour solubility relative to LOQ: purified water and pH 1 buffer medium
Procedure: 50 mg of each test sample was weighed, and a suspension was prepared using 5.0 mL of purified water, pH 1 buffer, SGF (simulated gastric fluid), FaSSIF (fasted state simulated intestinal fluid), and FeSSIF (fed state simulated intestinal fluid), respectively. After equilibration at 37°C for 1 hour, 2 hours, 4 hours, and 24 hours, filtration was performed to obtain clear solutions. The content of the sample in the saturated solution was measured by HPLC.

[7] = physchem
[8] = Initial (baseline of stability test)

Row | SMILES | Hygroscopic weight gain at 25°C/80% RH (%) [1] | Crystal form change after DVS test [1] | hygroscopicity [1] | Average bulk density [2] | Average tap density [2] | Bulk density [2] | Tap density [2] | Average repose angle (°) [3] | Repose angle (°) [3] | crystal form after grinding [4] | crystal form after tableting [4] | Crystal form change ([5]; 25°C/60% RH/open/1 month) | Purity (area%) ([5]; 25°C/60% RH/open/1 month) | Crystal form change ([5]; 40°C/75% RH/open/1 month) | Purity (area%) ([5]; 40°C/75% RH/open/1 month) | Crystal form change ([5]; 80°C/sealed/1 day) | Purity (area%) ([5]; 80°C/sealed/1 day) | Purity (area%) [5, 8] | crystal form transformation (XRPD) [5] | Solubility, FaSSIF ([6]; 1 hour, 60 min) | further results
1 | CC(C)=CCC[C@](C)(O)[C@H]1CC[C@]2(C)[C@@H]1[C@H](O)C[C@@H]1[C@@]3(C)CC[C@H](O)C(C)(C)[C@@H]3CC[C@]12C [Crystal form B, 20(S)-protopanaxadiol] | 0.2227% | Unchanged | slight hygroscopicity | 0.21 g/mL | 0.25 g/mL | 0.22 g/mL and 0.21 g/mL | 0.25 g/mL and 0.24 g/mL and 0.26 g/mL | 24.2 ° | 25.0 ° and 24.7 ° and 22.8 ° | transformed into amorphous form | did not undergo crystal form transformation | No | 97.17 area% | No | 97.15 area% | No | 97.18 area% | 97.20 area% | did not undergo crystal form transformation | 0.034 mg/mL (≈ 73.8 µM) | crystallinity degree after tableting [4]: decreased; chemical purity (HPLC) after storage ([5]; under three conditions): did not show a significant decrease; Solubility, FaSSIF ([6]; 2 hours, 120 min): 0.039 mg/mL (≈ 84.6 µM); Solubility, FaSSIF ([6]; 4 hours, 240 min): 0.042 mg/mL (≈ 91.2 µM); Solubility, FaSSIF ([6]; 24 hours, 1440 min): 0.042 mg/mL (≈ 91.2 µM); solubility in SGF, comparison among crystal forms [6]: no significant difference; Solubility, SGF ([6]; 1 hour, 60 min): 0.018 mg/mL (≈ 39.1 µM); Solubility, SGF ([6]; 2 hours, 120 min): 0.019 mg/mL (≈ 41.2 µM); Solubility, SGF ([6]; 4 hours, 240 min): 0.018 mg/mL (≈ 39.1 µM); Solubility, SGF ([6]; 24 hours, 1440 min): 0.016 mg/mL (≈ 34.7 µM); 24-hour solubility relative to LOQ ([6]; 24 hours): lower than LOQ
2 | CC(C)=CCC[C@](C)(O)[C@H]1CC[C@]2(C)[C@@H]1[C@H](O)C[C@@H]1[C@@]3(C)CC[C@H](O)C(C)(C)[C@@H]3CC[C@]12C [Crystal form A, 20(S)-protopanaxadiol] | 0.5763% | Unchanged | slight hygroscopicity | 0.43 g/mL | 0.52 g/mL | 0.44 g/mL and 0.46 g/mL and 0.40 g/mL | 0.48 g/mL and 0.56 g/mL and 0.51 g/mL | 20.5 ° | 21.2 ° and 19.0 ° and 21.4 ° | transformed into amorphous form | did not undergo crystal form transformation | No | 97.20 area% | No | 97.18 area% | No | 97.20 area% | 97.21 area% | did not undergo crystal form transformation | 0.070 mg/mL (≈ 152 µM) | chemical purity (HPLC) after storage ([5]; under three conditions): did not show a significant decrease; solubility at 2 h ([7]; fassif): 0.073 mg/mL (≈ 158 µM); solubility at 4 h ([7]; fassif): 0.072 mg/mL (≈ 156 µM); solubility at 4 h ([7]; ph 1 buffer, pH 1): 0.00011 mg/mL (≈ 0.239 µM); solubility at 24 h ([7]; ph 1 buffer, pH 1): 0.00015 mg/mL (≈ 0.326 µM); solubility at 1 h ([7]; sgf (simulated gastric fluid)): 0.02 mg/mL (≈ 43.4 µM); solubility at 2 h ([7]; sgf (simulated gastric fluid)): 0.021 mg/mL (≈ 45.6 µM); solubility at 4 h ([7]; sgf (simulated gastric fluid)): 0.017 mg/mL (≈ 36.9 µM); solubility at 24 h ([7]; sgf (simulated gastric fluid)): 0.011 mg/mL (≈ 23.9 µM); solubility at 24 h ([7]; water): 0.00013 mg/mL (≈ 0.282 µM); solubility at 24 h ([7]; water and ph 1 buffer, pH 1): 0.00013 to 0.00015 mg/mL (≈ 0.282 to 0.326 µM); Solubility, FaSSIF ([6]; 24 hours, 1440 min): 0.12 mg/mL (≈ 260 µM); solubility in SGF, comparison among crystal forms [6]: no significant difference; solubility in FaSSIF, comparison with crystal form B [6]: higher than that of the crystal form B
3 | CC(C)=CCC[C@](C)(O)[C@H]1CC[C@]2(C)[C@@H]1[C@H](O)C[C@@H]1[C@@]3(C)CC[C@H](O)C(C)(C)[C@@H]3CC[C@]12C [Crystal form D, 20(S)-protopanaxadiol] | 0.3863% | Unchanged | slight hygroscopicity | 0.14 g/mL | 0.21 g/mL | 0.14 g/mL | 0.21 g/mL and 0.20 g/mL | 36.8 ° | 36.7 ° and 38.2 ° and 35.5 ° | transformed into amorphous form | did not undergo crystal form transformation | No | 93.75 area% | No | 93.00 area% | No | 94.04 area% | 96.01 area% | did not undergo crystal form transformation | 0.11 mg/mL (≈ 239 µM) | crystallinity degree after tableting [4]: decreased; chemical purity (HPLC) after storage ([5]; open storage at 25°C/60% RH and 40°C/75% RH for 1 month): slightly decreased; purity (HPLC) after storage ([5]; sealed storage at 80°C for 1 day): slightly decreased; solubility at 2 h ([7]; water): 0.00013 mg/mL (≈ 0.282 µM); Solubility, FaSSIF ([6]; 2 hours, 120 min): 0.072 mg/mL (≈ 156 µM); Solubility, FaSSIF ([6]; 4 hours, 240 min): 0.082 mg/mL (≈ 178 µM); Solubility, FaSSIF ([6]; 24 hours, 1440 min): 0.10 mg/mL (≈ 217 µM); solubility in SGF, comparison among crystal forms [6]: no significant difference; Solubility, SGF ([6]; 1 hour, 60 min): 0.021 mg/mL (≈ 45.6 µM); Solubility, SGF ([6]; 2 hours, 120 min): 0.017 mg/mL (≈ 36.9 µM); Solubility, SGF ([6]; 4 hours, 240 min): 0.016 mg/mL (≈ 34.7 µM); Solubility, SGF ([6]; 24 hours, 1440 min): 0.014 mg/mL (≈ 30.4 µM); solubility in FaSSIF, comparison with crystal form B [6]: higher than that of the crystal form B; 24-hour solubility relative to LOQ ([6]; 24 hours): lower than LOQ
